The assay concerns human MDA-MB-231 breast cancer cells. Briefly: Antiproliferative activity, tetrazolium reduction assay (Lazo method), 72 h. It is filed as cell-based. As to conditions: for IC50: MDA-MB-231, 72 h continuous treatment, read-out: concentration causing 50% growth inhibition. An excerpt: The ability of the compounds of the present invention to inhibit proliferation can be assessed by methods known to those of ordinary skill in the art. For example, proliferating cells can be contacted with a compound of the invention, and cell numbers determined. A reduction in cell number in treated versus untreated cells provides a measure of the ability of the present compounds to inhibit proliferation. In a preferred embodiment the cells to be treated are cancer cells, for example breast cancer cells such as the CDC25B+ breast cancer cells MDA-MB-231, which are available from the American Type Culture Collection (Accession No. HTB-26). The antiproliferative activity of the present compounds can also be measured by the assay described by Lazo et al. (1995) J. Biol. Chem. 270: 5506, the disclosure of which is incorporated herein by reference. The microtiter-based calorimetric assay is based upon the reduction of 3-[4,5-dimethylthiazol-2-yl]-2,5-diphenyl tetrazolium bromide by living cells, and permits evaluation of the cytostatic or cytotoxic actions of large numbers of compounds quickly in mouse embryonic fibroblasts and human CDC25B+ breast cancer cells. Briefly, exponentially growing CDC25B+ MDA-MB-231 cells are treated continuously with from 0 to 100 μM of a compound of the invention, and cell proliferation is determined calorimetrically after 72 hours by assessing the ability of the cells to reduce 3-[4,5-dimethylthiazol-2-yl]-2,5-diphenyl tetrazolium bromide.
Human MDA-MB-231 breast carcinoma cells were obtained from the American Type Culture Collection at passage 28 and were maintained for no longer than 20 passages. The cells were grown in RPMI-1640 supplemented with 1% penicillin (100 μg/mL) and streptomycin (100 μg/mL), 1% L-glutamate,and 10% fetal bovine serum in a humidified incubator at 37° C. under 5% CO2 in air. Cells were routinely found free of mycoplasma. To remove cells from the monolayer for passage or flow cytometry, cells were washed two times with phosphate buffer and briefly (<3 min) treated with 0.05% trypsin/2 mM EDTA at room temperature. After the addition of at least two volumes of growth medium containing 10W fetal bovine serum, the cells were centrifuged at 1,000×g for 5 min. Compounds were made into stock solutions using DMSO, and stored at -20° C. All compounds and controls were added to obtain a final concentration of 0.1-0.2% (v/v) of the final solution for experiments.
The antiproliferative activity of the compounds was determined by the method of Lazo et al. (1995) J. Biol. Chem. 270:5506. Briefly, cells (6.5×10^3 cells/cm^2) were plated in 96 well flat bottom plates for the cytotoxicity studies and incubated at 37° C. for 48 h. The plating medium was aspirated off 96 well plates and 200 μL of growth medium containing the compound was added per well. Compounds were used at from O to the highest available concentration which ranged from 30 to 100 μM. Plates were incubated for 72 h, and then washed 4× with serum free medium. After washing, 50 μL of 3-[4,5-dimethylthiazol-2-yl]-2,5-diphenyl tetrazolium bromide solution (2 mg/mL) was added to each well, followed by 150 μL of complete growth medium. Plates were then incubated an additional 4 h at 37° C. The solution was aspirated off, 200 μL of DMSO added, and the plates were shaken for 30 min at room temperature. Absorbance at 540 nm was determined with a Titertek Multiskan Plus plate reader. Biologically active compounds were tested at least 3 independent times.

Where two headings read alike, the source gives them in different places.

For the compound `CCCCCCCCCC(=O)NC(CCC(=O)N(CCNC(=O)c1nc(-c2ccccc2)oc1-c1ccccc1)Cc1ccccc1)C(=O)O` (stereo not shown) [Compound 1f], the IC50 was 88 to 100 µM. Further, where the note is “Homo sapiens, MDA-MB-231, 72 h”, the IC50 is 100 µM. For the same compound, the “concentration dependence of growth inhibition (in words)” value (MDA-MB-231, 72 h) is recorded as “concentration-dependent inhibition in proliferation”. The “concentration dependence of growth inhibition (in words)” value (MDA-MB-231, 72 h, listed as if) is reported as “clear concentration-dependency”.

Values taken from patent US5856506A, “Phosphatase inhibitors and methods of use thereof” (University of Pittsburgh, priority 1997, dated 1999).
